How the values were obtained:
[1] = target: EBV thymidine kinase (Epstein-Barr virus, UniProt P03177); conditions: after gastrointestinal absorption; cited from earlier work
[2] = system: early herpes virus proteins; conditions: cited from earlier work
[3] = system: group A ME/CFS patients; experiment: Follow-up of 106 group A ME/CFS patients 2001-2007 under subset directed antiviral treatment; assay type: in vivo, human; conditions: 79 of 106 group A patients, valacyclovir (EBV subset) or valganciclovir (HCMV, HHV6 subsets), 2001-2007, p<0.0001
Description: A ME/CFS diagnostic panel was created utilizing initial Fukuda/Carruthers criteria and a systematic review of 142 ME/CFS patients. Two groups of ME/CFS patients were found. Group A patients had elevated serum IgG antibody titers to the herpes viruses Epstein-Barr virus (EBV), cytomegalovirus (HCMV) and Human Herpes virus 6 (HHV6) in single or multiple virus infection, but no other co-infections. Group B patients had similar elevated herpes virus antibody titers, plus serologic evidence of co-infections, tick-borne (“Borrelia burgdorferi”, “Anaplasma phagocytophilia”, “Babesia microti”); “Mycoplasma pneumoniae”; or adult rheumatoid fever. One hundred and six group A ME/CFS patients were followed from 2001-2007, and treated with subset directed valacyclovir EBV subset or valganciclovir (HCMV, HHV6 subsets). The data included over 7000 patient visits and 35,000 data entries.

[4] = system: EBV subset ME/CFS patients; experiment: Energy Index Point Score (EIPS) of six EBV subset ME/CFS patients treated with valacyclovir for ≥12 months; assay type: in vivo, human; conditions: for EIPS final: valacyclovir ≥12 months
Method: As depicted in Table 1, the Energy Index (EI) point score (Copyright, Lerner A M and Deeter R G, 1999), is a simple and reliable metric that can be used to easily evaluate the functional capacity of the CFS patient at each patient-physician visit. The EI is measured on a scale of 1-10. Validation of the EI was done using two methods: 1.) 20 CFS patients and 22 healthy adults, matched for sex, age, place, and time; EI, CFS=3.6; EI, healthy adults=9.9, p=<0.0001; and 2.) 55 CFS patients evaluated at the same time by the EI and fatigue severity score, correlation 0.67, p=0.0066. Improvement to disappearance of CFS symptoms correlates with an increasing EI.
The validated energy index point score generally can be calculated for each CFS patient every 3 months at physician visits. A CFS patient has an EI≤5. A CFS patient with an […] is bedridden; a CFS diagnosis is no longer present at an EI>5. The EI effect size is 0.25, a medium effect size is 0.5. A large effect size is >0.8.
6 ME/CFS patients were identified as Group A EBV subset (five patients), and one patient (group B) had co-infection with Borrelia burgdorferi. […] A ME/CFS treatment decision tree that developed from the systematic review of the 142 ME/CFS patients is provided as FIG. 1.
Demographics. ME/CFS patients (Table 2) the six ME/CFS patients (5 women) were selected from 142 ME/CFS of the 2001-2007 systematic review. They were 37-59 years old. Serum samples were taken at intervals Mar. 5, 2002-Nov. 14, 2003. There were 7 to 10 sera from each patient. Five of the 6 ME/CFS patients were Group A (no co-infections), and one patient had co-infection with Borrelia burgdorferi (patient no. 2). Five of the 6 patients were HCMV IgG serum antibody negative. Initial EIPS values were 3.5-5.0, meaning that patients could be out of bed only 3 to 4 hours a day, and required daily naps in bed to complete each day. One ME/CFS patient was able to struggle to complete a sedentary working day (Table 2, patient no. 6). […] They struggled at baseline to maintain their sedentary working day, required a daytime nap, and could no longer do any exercise without marked syncope and worsening fatigue. One year later the final EIPS values were 7-8, for the 5 group A ME/CFS patients, meaning that patients could now live normal lives. The single group B ME/CFS patient's final EIPS value increased from a baseline of 3.5 to 5, but this […] still met international criteria diagnosis of ME/CFS. The EIPS is a validated (FSS-9 item scale with high degree of internal consistency measured by Cronbach's alpha) is a Functional Activity Appraisal: energy Index Score Healthcare worker Appraisal.

[5] = target: HV6 DNA polymerases (Human herpesvirus 6A, UniProt P28857); conditions: cited from earlier work
[6] = target: HCMV DNA polymerases (Human cytomegalovirus, UniProt P08546); conditions: cited from earlier work
HCMV DNA polymerases, sequence (P08546 whole entry): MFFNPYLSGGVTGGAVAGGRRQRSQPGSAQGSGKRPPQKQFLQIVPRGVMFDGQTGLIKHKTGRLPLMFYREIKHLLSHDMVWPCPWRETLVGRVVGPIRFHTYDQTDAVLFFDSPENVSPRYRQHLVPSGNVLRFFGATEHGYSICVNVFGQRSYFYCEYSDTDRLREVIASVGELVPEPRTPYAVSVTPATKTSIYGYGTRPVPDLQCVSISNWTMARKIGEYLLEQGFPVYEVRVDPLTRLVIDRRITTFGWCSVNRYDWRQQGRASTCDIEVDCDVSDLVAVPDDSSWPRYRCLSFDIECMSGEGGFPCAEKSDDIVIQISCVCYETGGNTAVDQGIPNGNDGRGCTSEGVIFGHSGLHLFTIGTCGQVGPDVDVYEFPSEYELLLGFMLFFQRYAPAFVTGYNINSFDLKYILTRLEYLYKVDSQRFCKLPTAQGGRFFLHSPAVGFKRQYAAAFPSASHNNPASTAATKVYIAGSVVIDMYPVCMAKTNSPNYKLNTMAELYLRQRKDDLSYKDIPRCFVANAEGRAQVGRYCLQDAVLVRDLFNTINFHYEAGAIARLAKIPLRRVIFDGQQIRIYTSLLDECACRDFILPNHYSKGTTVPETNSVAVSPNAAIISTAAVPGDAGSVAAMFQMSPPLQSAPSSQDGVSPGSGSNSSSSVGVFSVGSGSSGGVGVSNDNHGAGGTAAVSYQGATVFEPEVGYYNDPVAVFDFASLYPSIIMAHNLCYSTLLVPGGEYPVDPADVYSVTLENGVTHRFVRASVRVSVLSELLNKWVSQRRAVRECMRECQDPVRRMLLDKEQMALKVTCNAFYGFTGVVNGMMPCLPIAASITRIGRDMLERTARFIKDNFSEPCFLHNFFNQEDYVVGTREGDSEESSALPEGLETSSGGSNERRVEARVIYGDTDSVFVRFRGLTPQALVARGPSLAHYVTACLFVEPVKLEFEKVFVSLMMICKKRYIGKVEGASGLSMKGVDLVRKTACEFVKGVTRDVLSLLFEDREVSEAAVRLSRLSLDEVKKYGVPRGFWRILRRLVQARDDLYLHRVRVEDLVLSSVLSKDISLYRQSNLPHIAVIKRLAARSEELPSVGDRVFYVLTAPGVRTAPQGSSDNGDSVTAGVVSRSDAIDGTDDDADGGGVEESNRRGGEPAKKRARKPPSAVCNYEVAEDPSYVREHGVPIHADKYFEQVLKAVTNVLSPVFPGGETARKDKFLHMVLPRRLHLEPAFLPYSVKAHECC

HV6 DNA polymerases, sequence (P28857 whole entry): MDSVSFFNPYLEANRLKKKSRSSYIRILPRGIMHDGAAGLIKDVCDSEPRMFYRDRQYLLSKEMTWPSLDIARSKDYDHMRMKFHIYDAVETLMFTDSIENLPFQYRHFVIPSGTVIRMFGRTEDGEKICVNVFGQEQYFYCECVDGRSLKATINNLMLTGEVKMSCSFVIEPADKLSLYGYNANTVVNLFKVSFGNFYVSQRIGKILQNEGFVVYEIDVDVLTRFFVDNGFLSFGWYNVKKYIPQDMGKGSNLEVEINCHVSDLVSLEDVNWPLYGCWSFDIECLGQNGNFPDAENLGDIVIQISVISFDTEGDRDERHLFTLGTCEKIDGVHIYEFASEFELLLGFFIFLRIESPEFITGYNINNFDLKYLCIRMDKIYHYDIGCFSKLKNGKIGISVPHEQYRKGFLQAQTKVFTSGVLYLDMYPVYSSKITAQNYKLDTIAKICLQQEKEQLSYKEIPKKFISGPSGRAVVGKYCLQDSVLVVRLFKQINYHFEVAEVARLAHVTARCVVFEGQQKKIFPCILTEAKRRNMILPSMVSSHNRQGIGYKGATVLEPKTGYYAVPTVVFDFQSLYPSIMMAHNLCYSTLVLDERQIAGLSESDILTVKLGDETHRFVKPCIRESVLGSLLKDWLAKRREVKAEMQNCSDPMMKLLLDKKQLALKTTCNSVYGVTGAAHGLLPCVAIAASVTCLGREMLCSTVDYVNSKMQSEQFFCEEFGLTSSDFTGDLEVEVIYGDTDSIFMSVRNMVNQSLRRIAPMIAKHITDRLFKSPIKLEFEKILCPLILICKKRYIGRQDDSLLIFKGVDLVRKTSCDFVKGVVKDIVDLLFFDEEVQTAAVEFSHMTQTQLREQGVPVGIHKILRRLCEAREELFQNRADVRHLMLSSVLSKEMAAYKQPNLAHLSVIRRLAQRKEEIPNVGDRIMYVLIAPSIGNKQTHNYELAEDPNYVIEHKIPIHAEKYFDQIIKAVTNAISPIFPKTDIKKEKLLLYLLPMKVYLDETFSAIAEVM
EBV thymidine kinase, sequence (P03177 whole entry): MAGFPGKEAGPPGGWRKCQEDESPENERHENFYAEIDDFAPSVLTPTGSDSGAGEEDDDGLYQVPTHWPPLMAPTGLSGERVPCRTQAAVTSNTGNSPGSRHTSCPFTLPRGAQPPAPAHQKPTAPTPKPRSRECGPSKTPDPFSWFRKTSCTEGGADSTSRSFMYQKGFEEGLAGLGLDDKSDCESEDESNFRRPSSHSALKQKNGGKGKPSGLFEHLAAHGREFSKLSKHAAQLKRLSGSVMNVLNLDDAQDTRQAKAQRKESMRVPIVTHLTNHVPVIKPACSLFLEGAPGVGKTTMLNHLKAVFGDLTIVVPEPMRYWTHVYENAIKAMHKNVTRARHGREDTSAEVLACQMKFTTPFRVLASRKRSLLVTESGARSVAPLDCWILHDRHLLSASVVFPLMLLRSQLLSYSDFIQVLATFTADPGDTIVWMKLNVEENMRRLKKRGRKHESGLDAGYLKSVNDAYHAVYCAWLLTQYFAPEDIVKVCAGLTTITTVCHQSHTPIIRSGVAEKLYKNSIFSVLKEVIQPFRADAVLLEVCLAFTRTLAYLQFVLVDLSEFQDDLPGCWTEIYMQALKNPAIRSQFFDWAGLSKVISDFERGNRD

## CC(C)[C@H](N)C(=O)OCCOCn1cnc2c(=O)[nH]c(N)nc21 [valacyclovir]
[1]
  greater affinity for EBV thymidine kinase than for the host cellular enzyme: 200 ×
[2]
  inhibition of early herpes virus proteins: do not inhibit
[3]
  group A patients recovered to resume normal life: 74.5%
[4]; patient 1, Group A, no co-infection, EIPS 5 baseline
  EIPS final: EIPS 8
[4]; patient 2, Group B, co-infection Lyme disease, EIPS 3.5 baseline
  EIPS final: EIPS 5
[4]; patient 3, Group A, no co-infection, EIPS 5 baseline
  EIPS final: EIPS 8
[4]; patient 4, Group A, no co-infection, EIPS 4 baseline
  EIPS final: EIPS 7
[4]; patient 6, Group A, no co-infections, EIPS 6 baseline
  EIPS final: EIPS 7
[4]; single group B ME/CFS patient, baseline 3.5, still met criteria of ME/CFS
  final EIPS value: 5
[4]; the 5 group A ME/CFS patients, one year later, initial EIPS 3.5-5.0 (one patient 6)
  final EIPS values: 7-8

## CC(C)[C@H](N)C(=O)OCC(CO)OCn1cnc2c(=O)nc(N)[nH]c21 (some centres unmarked) [valganciclovir]
[2]
  inhibition of early herpes virus proteins: do not inhibit
[5]
  inhibition of HV6 DNA polymerases: inhibits
[6]
  inhibition of HCMV DNA polymerases: inhibits
[3]
  group A patients recovered to resume normal life: 74.5%
